# In US20240123022A1, “A STABLE ANTI-ANGIOGENIC AND ANTI-INFLAMMATORY PHARMACEUTICAL FORMULATION AND PHARMACEUTICAL COMBINATION FOR TREATMENT AND PREVENTION OF PSORIASIS” (priority 2021, published 2024):
# Assays:
# [1] = tested on: EA.hy926 cells; assay: Induction of DNA fragmentation in human endothelial cell line; format: cell-based
# Procedure: EA.hy926 cells, a well reported in vitro model to study the anti-angiogenic potential used for assessing apoptotic effect of IS217 through induction of DNA fragmentation. Cell conditions were maintained using DMEM, about 10% FBS, CO2 incubator and serum starved using 1% FBS. The starved cells were treated with IS217 in the concentrations of 100 μg/ml, 500 μg/ml, 1000 μg/ml, 2000 μg/ml, 5000 μg/ml and incubated for about 48 hours. Anthralin in concentrations of 0.1 μM and 0.5 μM was used as positive control.
# The fragmented DNA after lysis was precipitated using PEG/NaCl solution and incubated with 0.2 μg/ml of Hoechst 33258 dye, fluorescence was read at 360 ex/460 em using Biotek synergy HT multimode reader.
# [2] = tested on: JAK-STAT pathway; assay: Z′LYTE activity assay, tyrosine kinases; format: biochemical
# From the text: (§1) Tyrosine kinases play key role in pathogenesis of psoriasis IS217 was investigated for possible inhibition of various tyrosine kinase, which play crucial role in pathogenesis of psoriasis. The method employed to detect the effect was Z′LYTE activity assay.
# [3] = tested on: MAPK1 (MEK 1); assay: Z′LYTE activity assay, tyrosine kinases; format: biochemical; settings: 10 μg/ml-250 μg/ml
# From the text: as §1
# [4] = tested on: other kinases; assay: Z′LYTE activity assay, tyrosine kinases; format: biochemical; settings: low concentration tested of 10 μg/ml
# From the text: as §1
# [5] = Pre-formulation stability and maximum feasible concentration; format: physicochemical
# Procedure: This study is important in CMC preparation of any drug. The study was conducted to develop suitable pre-formulations of IS217 for four administration routes selected for in vivo studies and to determine maximum concentration of IS217 peptide which is feasible in these pre-formulation i.e., maximum feasible concentration (MFC). Four different aqueous based pre-formulations of IS217 like 10% v/v Tween 20, 20% v/v glycerol, 10% PG v/v in 0.9% NaCl solution and 0.9% NaCl alone were prepared and were first subjected to stability study at intended use of temperature (RT) for about 24 hours. HPLC based assay method was used to evaluate the stability.
# Out of these, four aqueous based pre-formulation, 0.9% NaCl solution was selected for intravenous (IV) and intraperitoneal (IP) route and also the aqueous vehicle for co-solvent pre-formulation, based on its stability and suitability at physiological conditions. For subcutaneous (SC)/intramuscular route (IM), a co-solvent-based pre-formulation was developed. 10% propylene glycol (PG) in 0.9% NaCl solution was selected as pre-formulation for SC/IM. Maximum feasible concentration of IS217 in both the pre-formulations was greater than 50 mg/ml.
# [6] = tested on: TPA induced ear inflammation model in C57BL/6 mice; assay: IS217 alone and in combination with methotrexate and betamethasone in TPA induced ear inflammation model; format: in vivo
# Procedure: The experimental procedure, doses and route of administration were same as IMQ model. Test item IS217 was administered subcutaneously either alone or in combination with standard methotrexate (MTX) and betamethasone (BD) to diseased animals.
# [7] = tested on: IMQ induced psoriasis mouse model; assay: Proof of concept efficacy study, SC and topical route, IMQ-induced psoriasis mice model; format: in vivo, BALB/c mice
# Procedure: The study objective was to validate the efficacy of IS 217 through Parental route and to study the efficacy of 1% IS 217 Cream Formulation through topically and to fix dose levels and treatment mode for further proof of concept studies and included with SC dose ([…] and 1.2 mg/kg) as proof of concept studies.
# The study was conducted to evaluate efficacy of test compound IS217 (topical and subcutaneous route) on IMQ induced psoriasis mouse model.
# Test items: IS217 cream formulation (topical treatment) and IS217 powder vials (subcutaneous treatment) along with placebo were provided.
# Standard Drugs: 1.0.01% Batamethasone cream (Betnovate®); 100 mg/4 ml bevacuzimab (Avastin®)
# Study animals: 8-9 weeks old male BALB/c mice were used for the study.
# Treatment period was from day 1 to day 14. IMQ cream application: 5% IMQ cream, 65 mg was applied on shaved back and 5 mg on each ear during study period. Treatment regimen: treatment to be given twice a day-test drug high dose. 2-hour difference was taken between application of IMQ and application of test drug. 8-hour difference was taken between second application of test drug.
# Required quantity of IS217 compounds was weighed on Sartorius weighing balance. Weighed amount was dissolved in 10% Propylene glycol.
# • IMQ (Imigod, Glenmark pharmaceuticals) was weighed every day prior to application. • 65 mg of 5% IMQ cream was applied on shaved back of animals with help of spatula. 5 mg IMQ cream was applied on each ear of mouse. • IMQ application was done every day for 14 days and on day 15 studies were terminated. (Except for group 4 and group 5) • Group 4 was terminated on day 17 (post 14 days of treatment) • Group 5 was terminated on day 21 (post 14 days of treatment) • Group 4 and 5 received similar duration of test formulation as per group 3. • Group 4 received 17 days IMQ application, group 5 received 20 days IMQ application.
# • Treatment to all the groups were done two hours post IMQ cream application • Formulation for topical application were weighted daily on Sartorius balance • Formulation for SC treatment was prepared fresh every day as per procedure mentioned above. • Standard drug Betamethasone was weighed daily and applied topically to respective treatment group • Bevacizumab was prepared fresh at the time of dosing. • All the treatments were given as per study design
# [8] = tested on: human plasma proteins
# Procedure: Test item at concentration of about 100 μg/ml was incubated with human plasma at 37° C. in water bath for about 1 hour. About 500 μL of test solution was transferred to ultrafiltration devices and centrifuged for about 15 minutes at about 13000 rpm and at 37° C. and analyzed using HPLC method.
# [9] = IS217 SC 1.2 mg/kg q.d., 10 days
substance,measurement,setting,value
"H-FAKKFAKKFK-OH [IS217, H-Phe-Ala-Lys-Lys-Phe-Ala-Lys-Lys-Phe-Lys-OH]",induction of DNA fragmentation,"[1]; EA.hy926, 1000 μg/ml, 48 h",24.53%
same,percentage of induction of DNA fragmentation,"[1]; EA.hy926, 2000 μg/ml and 5000 μg/ml",significant decrease
same,inhibition of JAK-STAT pathway,[2],No inhibition
same,inhibition of MAPK1 (MEK 1),[3],good inhibition
same,inhibition of other kinases,[4],Moderate to low inhibition
same,Maximum feasible concentration,"[5]; 0.9% NaCl solution (IV, IP pre-formulation)",greater than 50 mg/ml
same,Maximum feasible concentration,[5]; 10% propylene glycol in 0.9% NaCl solution (SC/IM pre-formulation),greater than 50 mg/ml
same,physical appearance of pre-formulations,"[5]; four aqueous pre-formulations, RT, 24 hours",no visual changes
same,"ear thickness (absolute, histopathology, ear punch biopsy)","[6]; IS217 (1.2 mg/kg) < MTX (1.5 mg/kg), p < 0.01",Decreased ear
same,edema and hyperkeratosis,[6]; [9],IS217 decreased
same,"inflammatory cytokines in ear homogenate (ELISA and histopathology score) IL-23, IL-6, TNF-α and MPO",[6]; [9],IS217 decreased
same,inhibitory activity against TPA induced increase in ear thickness,[6]; IS217 alone (SC 1.2 mg/kg q.d. per Table 6),44.77%
same,effect in combination with MTX,[6]; TPA model combination study,good effect
same,absolute ear thickness,[6]; alone as well as in combination with standard drugs,significant reduction
same,only epidermal hyperplasia (skin),[7]; 0.6 mg/kg SC,reduced
same,"IL-17 level in ear, skin, and serum matrix",[7]; 0.6 mg/kg and 1.2 mg/kg SC,significant decrease
same,TNF-α in ear homogenates samples,[7]; 0.6 mg/kg and 1.2 mg/kg SC,decreased
same,ear thickness,[7]; 0.6 mg/kg and 1.2 mg/kg SC,significantly decreased
same,overall efficacy versus the standard drug (Bevacizumab),[7]; 0.6 mg/kg and 1.2 mg/kg SC,comparable
same,"psoriatic score, ear weight",[7]; 0.6 mg/kg and 1.2 mg/kg SC,significant decrease
same,"scaling, erythema and skin thickness",[7]; 0.6 mg/kg and 1.2 mg/kg SC,decrease
same,"Epidermal hyperplasia, parakeratosis, leukocyte infiltration","[7]; 0.6 mg/kg and 1.2 mg/kg, vs vehicle",significantly decreased
same,"epidermal hyperplasia, parakeratosis in skin",[7]; 1.2 mg/kg SC,reduced
same,spleen weight,[7]; SC administration,Decrease
same,binding affinity to human plasma proteins,[8],moderate binding affinity
same,Shelf life of IS217 API,,about 2 years
same,appearance of reconstituted solution,0.9% sodium chloride,clear and colourless
same,Dissolution of the lyophilized powder completed in,reconstitution with 0.9% sodium chloride,less than 2 minutes
